In patent US20170020900A1, “METHODS FOR SCREENING ANTIMICROBIAL AND ANTIVIRAL COMPOUNDS AND USES THEREOF” (The General Hospital Corporation, priority 2006, published 2017):
In brackets after ≈: the same amount, converted by molar mass. Residues, ends and D or L forms follow the SMILES beside them. *: point of attachment. CH2Cl = ClC*

What was measured:
C. albicans strain MLR62 = assay: C. elegans-Candida killing assay, compound library screen in 96-well plates; assay type: in vivo, Candida albicans; details: for Killing: glp-4, sek-1 nematodes, day 6, compound 33.33 μg/ml, 13.33 μg/ml, or 6.67 mM depending on library
Protocol: For testing the efficacy of chemical compounds, C. albicans strain MLR62 was inoculated into 2 ml of YPD and grown at 30° C. for 24 hours; 10 μl of the culture was spread on 35-mm tissue-culture plates (Falcon) containing brain heart infusion (BHI) agar (Difco) with kanamycin (45 μg/ml), ampicillin (100 μg/ml), and streptomycin (100 μg/ml). The plates were incubated at 30° C. for 24 hours. C. elegans animals at the L4 developmental stage (grown as detailed above under C. elegans liquid medium killing assays) were transferred from a lawn of E. coli HB101 onto C. albicans lawns on BHI medium, incubated at 25° C. for 30 minutes, and then pipetted in 50 μl into 96-well plate wells that contained 100 μl liquid media (79% of M9 buffer, 20% BHI media, 2 μM cholesterol and 90 μg/ml kanamycin). C. elegans glp-4; sek-1 nematodes were pipetted into 96-well plates that contained compounds from chemical libraries. Library 1361 was assembled by Biomol and contains well-characterized compounds that affect many different aspects of cellular pathways. The NINDS custom collection (plates 501-503) was put together by MicroSource Discovery Systems for the National Institute of Neurological Disorders and Stroke (NINDS), the Huntington's Disease Society of America (HDSA), the Amyotrophic Lateral Sclerosis (ALS) Association, and the Hereditary Disease Foundation (HDF). It mostly contains FDA approved drugs. The Prestwick library (plate 1569) contains compounds that are known to be safe and bioactive in humans. The majority of the compounds are marketed drugs.
On day 6, nematodes were evaluated for survival, filament formation and optical density. The plates were incubated at 25° C. and examined on day 6 for survival with a Nikon SMZ645 dissecting microscope. In addition, images were obtained using a CellWorx High Content Cell Analysis System (Applied Precision) at 4× magnification. Dead worms were counted but not removed. […] Each compound was also scored by the number of dead worms in the well that developed hyphea. […] Compounds were categorized as having a minimal effect on filament formation if 25-75% of the dead worms developed hyphea.
Approximately 25 nematodes were used to analyze each chemical compound tested. Two controls were used in all plates. […] In this pilot screen, we considered a compound as a “hit” when survival in the compound well with was 50% and above of the median survival of the control wells. Depending on the compound library, the final concentration of the compounds was 33.33 μg/ml, 13.33 μg/ml, or […].

E. faecalis [1] = assay: Bacterial colonization of the nematode intestine (CFU per worm); assay type: in vivo, Enterococcus faecalis; details: 100% = 3.28 × 10^4 CFU/worm
Protocol: Infected worms were washed three times with M9 buffer containing 1 mM sodium azide. Approximately 10 worms were transferred to a 2 ml microcentrifuge tube and the volume was brought to 250 μl. Fifty μl of buffer was removed and plated to determine the number of external CFU.

[2] = system: E. faecalis strain MMH594; assay: MIC, 2-fold broth microdilution in BHI media (NCCLS); assay type: cell-based, Enterococcus faecalis; details: Enterococcus faecalis, E30 value is at its aqueous solubility limit, read-out: MIC
Protocol: Worm survival was scored manually after 6 days of incubation. […] MICs were determined against E. faecalis strain MMH594 using 2-fold dilution in BHI media according to the broth microdilution protocol of the NCCLS (CLSI) (National Committee for Clinical Laboratory Standards, Approved Standard M7-A5; Methods for Dilution Antimicrobial Susceptibility Tests for Bacteria that Grow Aerobically, Villanova, Pa.: NCCLS (2000)).

E. faecalis [3] = assay: Curing of a nematode E. faecalis infection on solid medium by antibiotic treatment; assay type: in vivo, Enterococcus faecalis; details: worms transferred to E. faecium lawns
Protocol: FIGS. 11A-11D show the curing of a nematode E. faecalis infection on solid medium by antibiotic treatment. FIG. 11A is a graph depicting the Kaplan-Meier survival curves of wild-type N2 C. elegans feeding continuously on lawns of E. faecalis (Efs) V583 (▴) or E. faecium (Efm) DO (▾). Nematodes feeding for 24 hours on E. faecalis and subsequently transferred to lawns of E. faecium (▪) die with an LT50 of 14.9 days. Error bars equal SEM. […] FIG. 11C is a graph showing the antibiotic concentrations required to promote rescue of E. faecalis infected N2 nematodes. […] Error bars are standard deviations. […] Error bars equal SEM.
N2 or glp-4(bn2ts); sek-1(km4) worms were synchronized by isolating eggs from gravid adults, hatching the eggs overnight in M9 buffer, and plating L1-stage worms onto lawns of E. coli on NGM agar media. Worms were grown to sterile, young adults by incubation at 25° C. for 48 to 52 hours, washed off the plates with M9 buffer, resuspended and washed in M9 buffer, deposited onto lawns of E. faecalis grown on BHI agar plates containing kanamycin at 80 μg/ml to inhibit E. coli growth, incubated for 8 to 12 hours at 25° C., and resuspended in M9 buffer. For assays using agar media, approximately 35 infected worms were washed and then deposited onto 35 mm plates containing the appropriate antibiotics. Plates were incubated at 25° C. and scored for worm survival at regular intervals. Worms were considered dead if they were unresponsive to touch with a platinum wire pick. For the initial assays using liquid media, approximately 80 infected worms were transferred to wells of a 6 well plate containing 2 ml media consisting of 10% BHI 80 μg/ml kanamycin, 90% M9 buffer, and the appropriate antibiotics. The plates were incubated without agitation at 25° C. and 80-85% relative humidity.

Compound | Killing (C. albicans strain MLR62) | other results
CCCCC(C)(O)C/C=C/[C@H]1[C@H](O)CC(=O)[C@@H]1CCCCCCC(=O)O (mixture of isomers) [Misoprostol, free acid] | 0.464 | 
CCCCCCCCCCCCCCC[C@H](O)[C@@H](N)CO (racemic) [DL-Dihydrosphingosine] | 0.485 | 
CCCCC/C=C\C/C=C\C/C=C\C=C\[C@H](CCCC(=O)O)OO [5 (S) HPETE] | 0.261 | 
CCCCCCCCCCC/C=C\C(C)(C)/C=C\CCCC(=O)O [7,7-Dimethyleicosadienoic acid] | 0.304 | 
CCCCC[C@@H](/C=C/C=C\C/C=C\C/C=C\CCCC(=O)O)OO [15 (S) HPETE] | 0.412 | 
N#CC(=Cc1ccc2[nH]ccc2c1)C(N)=C(C#N)C#N [AG-370] | 0.111 | 
N#C/C(=C/c1ccc(O)c(O)c1)C(=O)NCc1ccccc1 [AG-490] | 0.462 | 
COc1cc2ncnc(Nc3cccc(Cl)c3)c2cc1OC [AG-1478] | 0.3 | 
C[C@H](N)C(=O)N[C@@H](C)C(=O)N[C@@H](Cc1ccccc1)C(=O)CCl [ALA-ALA-PHE-CMK] (H-Ala-Ala-Phe-CH2Cl) | 0.448 | 
CC(=O)N[C@@H](CSC/C=C(\C)CC/C=C(\C)CCC=C(C)C)C(=O)O [Acetyl (N) s farnesyl 1 cys] | 0.4 | 
Cc1n[nH]c(=O)[nH]c1=O [Azathymine, 6] | 0.480 | 
CO/C1=C\C(C)=C\[C@@H](C)[C@@H](O)[C@@H](C)C/C(C)=C/C=C/[C@H](OC)[C@@H]([C@@H](C)[C@@H](O)[C@H](C)[C@@]2(O)C[C@@H](O)[C@H](C)[C@@H](C(C)C)O2)OC1=O [Bafilomycin A1] | 0.333 | 
O=C(/C=C/c1ccc(O)c(O)c1)OCCc1ccccc1 [Caffeic acid phenethyl ester] |  | fluorescence within the nematode intestine (GFP-expressing C. albicans) (C. albicans strain MLR62; FIG. 18A): no fluorescence within the intestine
O=C(NC(NC(=S)Nc1ccc([N+](=O)[O-])cc1)C(Cl)(Cl)Cl)c1cccc([N+](=O)[O-])c1 (stereo not shown) [Compound E1] |  | Amt. Colonization vs untreated (E. faecalis [1]): 1%; MIC [2]: 31.3 µg/mL (≈ 63.5 µM)
O=C(CCN1C(=O)/C(=C2/SC(=S)N(CCC(=O)Nc3ccccc3C(=O)O)C2=O)SC1=S)Nc1ccccc1C(=O)O [Compound F1] |  | Amt. Colonization vs untreated (E. faecalis [1]): 3%; MIC [2]: > 125 µg/mL
O=c1[nH]c2ccc(/N=C/c3cc(I)cc(I)c3O)cc2[nH]1 [Compound H1] |  | Amt. Colonization vs untreated (E. faecalis [1]): 1%; MIC [2]: 15.6 µg/mL (≈ 30.9 µM)
O=C1c2ccccc2-c2ncnc3ccc(NC4CCCCC4)c1c23 [Compound J1] |  | Amt. Colonization vs untreated (E. faecalis [1]): 11%; MIC [2]: 2 µg/mL (≈ 6.07 µM)
COc1ccc(/C=C/C2=CCN(Cc3ccccc3)CC2)cc1 [Compound K1] |  | Amt. Colonization vs untreated (E. faecalis [1]): 61%; MIC [2]: > 125 µg/mL
c1ccc(-c2ccc(CN3CCN(c4ccccn4)CC3)cc2)cc1 [Compound L1] |  | Amt. Colonization vs untreated (E. faecalis [1]): 101%; MIC [2]: > 125 µg/mL

Compound | Killing (C. albicans strain MLR62) | other results
CC1(C)C(C=C(Cl)Cl)C1C(=O)NCCCOC(=O)Nc1ccc(Cl)cc1 (stereo not shown) [Compound M1] |  | Amt. Colonization vs untreated (E. faecalis [1]): 8%; MIC [2]: > 125 µg/mL
CC(Oc1cccc(Cl)c1)C(=O)N/N=C/c1cc([N+](=O)[O-])ccc1O (stereo not shown) [Compound N1] |  | Amt. Colonization vs untreated (E. faecalis [1]): 5%; MIC [2]: 3.9 µg/mL (≈ 10.7 µM)
O=[N+]([O-])c1cc(O)ccc1/C=N/Nc1nc(NCc2ccccc2)nc(N2CCOCC2)n1 [Compound O1] |  | Amt. Colonization vs untreated (E. faecalis [1]): 8%; MIC [2]: 15.6 µg/mL (≈ 34.6 µM)
C=C1[C@@H](C)[C@H]2[C@H](Cc3ccccc3)NC(=O)[C@]23OC(=O)/C=C/[C@H](O)CCC[C@@H](C)C/C=C/[C@H]3[C@@H]1O [Cytochalasin B] | 0.438 | 
CC/C=C\C/C=C\C/C=C\C/C=C\C/C=C\CCCC(=O)O [Eicosapentaenoic acid (20:5 n-3)] | 0.448 | 
COC(=O)c1c(C)[nH]c(C)c1C(=O)c1ccccc1Cc1ccccc1 [FPL-64176] | 0.429 | 
CCCCC/C=C\C[C@@H](O)/C=C/C=C/C=C\[C@@H](O)CCCC(=O)O [Leukotriene B4] | 0.483 | 
CCCCC[C@H](O)/C=C/C=C\C=C\C=C\[C@@H](O)[C@@H](O)CCCC(=O)O [Lipoxin A4] | 0.273 | 
Clc1ccc2ncnc(NCc3ccc4c(c3)OCO4)c2c1 [MBCQ] | 0.32 | 
C[N+]1(CCCCC[N+]2(C)CCCC2)CCCC1.O=C([O-])C(O)C(O)C(=O)O.O=C([O-])C(O)C(O)C(=O)O [Pentolinium bitartrate] | 0.227 | 
CC(=O)[C@H]1CC[C@H]2[C@@H]3CC=C4C[C@@H](OS(=O)(=O)[O-])CC[C@]4(C)[C@H]3CC[C@]12C.[Na+] [Pregnenolone sulfate, sodium salt] | 0.438 | 
N#Cc1cc2c(OCC(O)CN3CCN(C(c4ccccc4)c4ccccc4)CC3)cccc2[nH]1 (stereo not shown) [SDZ-201106] | 0.432 | 
CN(C)[C@@H]1C(O)=C(C(N)=O)C(=O)[C@@]2(O)C(O)=C3C(=O)c4c(O)cccc4[C@@](C)(O)[C@H]3C[C@@H]12 [Tetracycline] |  | survival of E. faecalis infected N2 C. elegans, p (Kaplan-Meier) (E. faecalis [3]; tetracycline 0.08 μg/ml): 0.56; survival of E. faecalis infected N2 C. elegans, p (Kaplan-Meier) (E. faecalis [3]; tetracycline 0.4 μg/ml): < 0.06; survival of E. faecalis infected N2 C. elegans, p (Kaplan-Meier) (E. faecalis [3]; tetracycline 2 μg/ml): < 0.0014; survival of E. faecalis infected N2 C. elegans, p (Kaplan-Meier) (E. faecalis [3]; tetracycline 10 μg/ml): < 0.0001
Docosatrienoic acid (22:3 n-3) | 0.439 | 
Eicosatrienoic acid (20:3 n-3) | 0.333 | 
Hydrocortisone hemisuccinate | 0.300 | 
Hydroxytacrine maleate | 0.467 | 
Ikarugamycin | 0.429 | 
